The record followed here is publication PMC6563694 (Angewandte Chemie (International Ed. in English), 2019).

Structures are written as SMILES.

human histamine H3 receptor (hH3R), sequence (Q9Y5N1 whole entry): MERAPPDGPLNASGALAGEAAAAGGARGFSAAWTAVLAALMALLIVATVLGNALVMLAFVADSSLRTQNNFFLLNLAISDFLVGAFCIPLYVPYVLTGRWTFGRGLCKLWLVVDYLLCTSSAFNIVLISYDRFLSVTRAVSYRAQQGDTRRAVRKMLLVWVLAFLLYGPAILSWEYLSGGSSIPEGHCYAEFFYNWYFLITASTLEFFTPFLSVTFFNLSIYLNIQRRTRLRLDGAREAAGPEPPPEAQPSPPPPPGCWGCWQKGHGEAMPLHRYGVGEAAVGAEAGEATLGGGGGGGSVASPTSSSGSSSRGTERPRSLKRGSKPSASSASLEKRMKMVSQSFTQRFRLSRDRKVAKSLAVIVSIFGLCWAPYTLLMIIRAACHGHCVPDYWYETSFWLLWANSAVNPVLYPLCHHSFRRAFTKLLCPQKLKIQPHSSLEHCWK

The target of the first assay is mouse H3R (Mus musculus, UniProt P58406). In words: receptor binding. The settings on record: PSS cis.
mouse H3R, sequence (P58406 whole entry): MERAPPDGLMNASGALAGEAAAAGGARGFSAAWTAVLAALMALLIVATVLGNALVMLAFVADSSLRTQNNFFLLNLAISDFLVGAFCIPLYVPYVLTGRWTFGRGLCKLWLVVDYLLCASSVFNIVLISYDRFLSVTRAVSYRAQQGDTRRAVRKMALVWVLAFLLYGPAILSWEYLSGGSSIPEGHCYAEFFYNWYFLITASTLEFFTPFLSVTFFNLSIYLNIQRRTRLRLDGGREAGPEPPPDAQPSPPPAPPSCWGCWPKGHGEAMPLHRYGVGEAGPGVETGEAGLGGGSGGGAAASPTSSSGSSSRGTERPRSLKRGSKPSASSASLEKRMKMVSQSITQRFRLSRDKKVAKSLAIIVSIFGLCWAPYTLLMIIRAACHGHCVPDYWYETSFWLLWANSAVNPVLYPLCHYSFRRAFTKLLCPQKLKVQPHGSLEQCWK
`c1ccc(/N=N\c2cccc(Cc3c[nH]cn3)c2)cc1` [compound 65, cis-65 (PSS cis)]: the pKi result was “high nM (trans) to low μM (PSS cis) binding affinities for both mouse and rat”.

The assay is the same for the next values; noted with them: trans.
With `c1ccc(/N=N/c2cccc(Cc3c[nH]cn3)c2)cc1` [compound 65, trans-65], the pKi entry was “high nM (trans) to low μM (PSS cis) binding affinities for both mouse and rat”.

Another assay has as its target human histamine H3 receptor (hH3R) (Homo sapiens, UniProt Q9Y5N1). Kind of assay: [3H]-Nα-methylhistamine competition binding.
Conditions: not given
For the compound `Cc1cccc(/N=N/c2cccc(Cc3c[nH]cn3)c2)c1` [compound 77, 77 trans], the Ki (as a rule, a measure of affinity in units of concentration, obtained from inhibition or displacement) is 0.0407 µM.

Compound `Cc1ccc(/N=N/c2cccc(Cc3c[nH]cn3)c2)cc1` [compound 78, 78 trans] had a Ki of 1.91 µM.

Regarding `c1ccc(/N=N\c2cccc(Cc3c[nH]cn3)c2)cc1` [compound 65, cis-65 (PSS cis)], the inhibition constant (Ki) was 0.0324 µM.

In turn, `Fc1ccccc1/N=N\c1cccc(Cc2c[nH]cn2)c1` [compound 66, 66 cis (PSS cis)] gave a Ki of 0.0813 µM.

The compound `Clc1ccccc1/N=N/c1cccc(Cc2c[nH]cn2)c1` [compound 70, 70 trans] had a Ki of 0.0138 µM.

For the compound `Fc1ccccc1/N=N/c1cccc(Cc2c[nH]cn2)c1` [compound 66, 66 trans], the Ki was 0.00525 µM.

The compound `Clc1ccccc1/N=N\c1cccc(Cc2c[nH]cn2)c1` [compound 70, 70 cis (PSS cis)] had a Ki of 0.141 µM.

The compound `Clc1ccc(/N=N\c2cccc(Cc3c[nH]cn3)c2)cc1` [compound 71, 71 cis (PSS cis)] gave a Ki of 1.05 µM.

In turn, `Cc1ccc(/N=N\c2cccc(Cc3c[nH]cn3)c2)cc1` [compound 78, 78 cis (PSS cis)] showed a Ki of 1.95 µM.

Take `Cc1ccccc1/N=N\c1cccc(Cc2c[nH]cn2)c1` [compound 76, 76 cis (PSS cis)]: the Ki is 0.398 µM.

Turning to `Cc1cc(Cc2c[nH]cn2)cc(/N=N\c2ccccc2)c1` [compound 74, 74 cis (PSS cis)], affinity was put at a Ki of 7.41 µM.

`Fc1ccc(/N=N/c2cccc(Cc3c[nH]cn3)c2)cc1` [compound 68, 68 trans] had an inhibitory constant (Ki) of 0.0204 µM.

Turning to `Cc1ccccc1/N=N/c1cccc(Cc2c[nH]cn2)c1` [compound 76, 76 trans], the Ki was 0.0191 µM.

Turning to `Fc1cccc(F)c1/N=N/c1cccc(Cc2c[nH]cn2)c1` [compound 69, 69 trans], the affinity corresponds to a Ki of 0.01 µM.

In turn, `Cc1cccc(/N=N\c2cccc(Cc3c[nH]cn3)c2)c1` [compound 77, 77 cis (PSS cis)] showed an inhibition constant (Ki) of 0.347 µM.

`c1ccc(/N=N/c2cccc(Cc3c[nH]cn3)c2)cc1` [compound 65, trans-65] showed an inhibition constant (Ki) of 0.0038 µM.

`Cc1cc(Cc2c[nH]cn2)cc(/N=N/c2ccccc2)c1` [compound 74, 74 trans] gave an inhibition constant Ki of 1.78 µM.

For the compound `Fc1cccc(F)c1/N=N\c1cccc(Cc2c[nH]cn2)c1` [compound 69, 69 cis (PSS cis)], the inhibitory constant (Ki) was 0.055 µM.

The compound `Cc1c(Cc2c[nH]cn2)cccc1/N=N/c1ccccc1` [compound 72, 72 trans] showed a Ki of 2.69 µM.

For `Fc1cccc(/N=N/c2cccc(Cc3c[nH]cn3)c2)c1` [compound 67, 67 trans], the inhibition constant Ki is 0.00447 µM.

For `Clc1ccc(/N=N/c2cccc(Cc3c[nH]cn3)c2)cc1` [compound 71, 71 trans], the Ki is 0.174 µM.

Turning to `Cc1c(Cc2c[nH]cn2)cccc1/N=N\c1ccccc1` [compound 72, 72 cis (PSS cis)], the inhibition constant Ki is 3.55 µM.

Consider `Fc1ccc(/N=N\c2cccc(Cc3c[nH]cn3)c2)cc1` [compound 68, 68 cis (PSS cis)], for which the inhibitory constant (Ki) is 0.309 µM.

Regarding `Fc1cccc(/N=N\c2cccc(Cc3c[nH]cn3)c2)c1` [compound 67, 67 cis (PSS cis)], affinity was put at a Ki of 0.038 µM.

The assay is the same for the next values; noted with them: kept in dark, >99 % trans.
As to `Fc1ccc(/N=N/c2ccccc2)cc1Cc1c[nH]cn1` [compound 79, 79 trans], the “pK i trans ± SEM” value worked out at 7.81±0.07.

For `Fc1ccc(Cc2c[nH]cn2)cc1/N=N/c1ccccc1` [compound 80, 80 trans], the “pK i trans ± SEM” value stood at 8.39±0.06.

With `Cc1ccc(Cc2c[nH]cn2)cc1/N=N/c1ccccc1` [compound 75, 75 trans], the “pK i trans ± SEM” value came to 7.15±0.03.

As to `Cc1ccc(/N=N/c2ccccc2)cc1Cc1c[nH]cn1` [compound 73, 73 trans], the “pK i trans ± SEM” value is 6.90±0.06.

The target of a further assay is rat H3R (Rattus norvegicus, UniProt Q9QYN8). Kind of assay: receptor binding. Conditions: PSS cis.
rat H3R, sequence (Q9QYN8 whole entry): as the sequence (P58406 whole entry) above, with A15T, T286A, G290A, H387R, V389I counted along it
Regarding `c1ccc(/N=N\c2cccc(Cc3c[nH]cn3)c2)cc1` [compound 65, cis-65 (PSS cis)], the pKi entry is “high nM (trans) to low μM (PSS cis) binding affinities for both mouse and rat”.

The assay is the same for the next values; noted with them: trans.
On to `c1ccc(/N=N/c2cccc(Cc3c[nH]cn3)c2)cc1` [compound 65, trans-65], for which the pKi entry is “high nM (trans) to low μM (PSS cis) binding affinities for both mouse and rat”.
